TGI data for 10 compounds are collected here from PubChem BioAssay (NCI).

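Dose response: 5 concentrations. Exposure: 48 h. Format: 96-well plates. Endpoint: linear interpolation; highest concentration if not reached. TGI: concentration producing complete growth inhibition.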 Bounds are passed on as bounds.

Among the test systems are 786-0 renal; ACHN renal; BT-549 breast; CCRF-CEM leukemia; HOP-92 NSCLC; M14 melanoma; MALME-3M melanoma; MCF7 breast; MDA-MB-435; MDA-N; NCI-H460 lung; OVCAR-3 ovarian; OVCAR-4 ovarian; RXF 393 renal; SF-539 CNS; SK-MEL-2 melanoma; SW-620 colon; T-47D breast; TK-10 renal; UO-31 renal.
Holding throughout (experiment): NCI anticancer screen, dose series, 48 h

In the case of `CCC(C#N)NCc1ccc(CNC(C#N)CC)cc1` (stereo not given), the TGI in the assay on 786-0 renal, in the assay with ACHN renal, in the assay on BT-549 breast, in the assay on CCRF-CEM leukemia, in the assay on HOP-92 NSCLC and in the assay on M14 melanoma was > 100 µM each time. The TGI with MALME-3M melanoma, in the assay with MCF7 breast, in the assay with MDA-MB-435, with MDA-N, in the assay with NCI-H460 lung and in the assay with OVCAR-3 ovarian was > 100 µM each time. For the same compound, the TGI in the assay with OVCAR-4 ovarian, in the assay on RXF 393 renal, in the assay with SF-539 CNS, with SK-MEL-2 melanoma, in the assay with SW-620 colon and with T-47D breast was > 100 µM each time. The TGI with TK-10 renal and in the assay on UO-31 renal was > 100 µM each time.
Regarding `COCn1c(=O)n(C)c(=O)c2c1nc1c(c(=O)n(C)c(=O)n1COC)[n+]2[O-]`, the TGI in the assay with 786-0 renal is > 100 µM; with ACHN renal it was 38 µM; with BT-549 breast, 87.1 µM; in the assay on CCRF-CEM leukemia, 27.4 µM; in the assay on HOP-92 NSCLC, 42 µM; with M14 melanoma it was 43.9 µM. Further, the TGI with MALME-3M melanoma is 31.3 µM; in the assay with MCF7 breast it was > 100 µM; with MDA-MB-435 it was 40.2 µM; in the assay on MDA-N, 76.9 µM; in the assay on NCI-H460 lung, 24.9 µM; in the assay on OVCAR-3 ovarian it was 44.1 µM. The TGI in the assay on OVCAR-4 ovarian was 43.4 µM; in the assay with RXF 393 renal it was 10.9 µM; in the assay with SF-539 CNS, 39.2 µM; with SK-MEL-2 melanoma, 36.8 µM; in the assay on SW-620 colon it was > 100 µM; with T-47D breast, 41.8 µM. Moreover, the TGI is 58.8 µM in the assay on TK-10 renal and > 100 µM in the assay with UO-31 renal.
As to `Cc1c2ccccc2c(CSC(=N)N)c2ccccc12`, the TGI in the assay with 786-0 renal was 0.745 µM; in the assay with ACHN renal, 0.303 µM; in the assay with BT-549 breast, 3.72 µM; in the assay on CCRF-CEM leukemia it was 0.0588 µM; in the assay with HOP-92 NSCLC, 1.43 µM; in the assay with M14 melanoma, 0.537 µM. Besides, the TGI with MALME-3M melanoma turned out to be 0.356 µM; in the assay on MCF7 breast, 0.518 µM; in the assay on MDA-MB-435 it was 0.44 µM; with MDA-N, 0.457 µM; in the assay with NCI-H460 lung, 0.374 µM; in the assay on OVCAR-3 ovarian, 2.73 µM. Moreover, the TGI was 0.514 µM in the assay on OVCAR-4 ovarian; 0.161 µM in the assay with RXF 393 renal; 0.419 µM in the assay with SF-539 CNS; 0.375 µM with SK-MEL-2 melanoma; 0.947 µM in the assay with SW-620 colon; 5.32 µM in the assay with T-47D breast. The TGI with TK-10 renal came out at 0.667 µM; in the assay on UO-31 renal, 0.511 µM.
In the case of `O=c1[nH]c(=S)n(-c2cccc3ccccc23)c(O)c1/C=C1\C=Nc2ccccc21`, the TGI was 3.55 µM with 786-0 renal; 5.73 µM with ACHN renal; 3.55 µM with BT-549 breast; 5.35 µM in the assay on CCRF-CEM leukemia; 4.85 µM with HOP-92 NSCLC; 3.77 µM in the assay on M14 melanoma. Moreover, the TGI is 5.8 µM with MALME-3M melanoma; 7.19 µM in the assay with MCF7 breast; 6.69 µM in the assay on MDA-MB-435; 4.63 µM in the assay with MDA-N; 5.38 µM in the assay with NCI-H460 lung; 12.6 µM with OVCAR-3 ovarian. Besides, the TGI with OVCAR-4 ovarian amounted to 7.42 µM; with RXF 393 renal, 3.43 µM; in the assay on SF-539 CNS, 5.38 µM; with SK-MEL-2 melanoma it was 3.55 µM; with SW-620 colon it was 6.73 µM; in the assay on T-47D breast, 19.3 µM. In addition, the TGI with TK-10 renal was determined as 6.06 µM; in the assay with UO-31 renal it was 4.93 µM.
In the case of `Clc1ccc(C2ON=C(c3ccccc3)N2C23CC4CC(CC(C4)C2)C3)cc1Cl` (stereo not given), the TGI in the assay on 786-0 renal, with ACHN renal, in the assay on BT-549 breast, in the assay on CCRF-CEM leukemia, in the assay on HOP-92 NSCLC and with M14 melanoma was > 10 µM each time. Besides, the TGI in the assay with MALME-3M melanoma, in the assay with MCF7 breast, in the assay on MDA-MB-435, with MDA-N, with NCI-H460 lung and in the assay on OVCAR-3 ovarian was > 10 µM throughout. Also, the TGI with OVCAR-4 ovarian, in the assay with RXF 393 renal, in the assay on SF-539 CNS, with SK-MEL-2 melanoma, with SW-620 colon and in the assay with T-47D breast was > 10 µM each time. Further, the TGI with TK-10 renal and with UO-31 renal was > 10 µM in each case.
In the case of `CCCCCCCCCCCCCCCCCCNc1ccn(C2OC(COP(=O)(O)OCC(COP(=O)(O)OCC3OC(n4cc(C)c(=O)[nH]c4=O)CC3N=[N+]=[N-])OCCCCCCCCCCCCCCCCCC)C(O)C2O)c(=O)n1` (stereo not given), the TGI in the assay with 786-0 renal, in the assay on ACHN renal, with BT-549 breast, in the assay with CCRF-CEM leukemia, with HOP-92 NSCLC and in the assay with M14 melanoma was > 100 µM in each case. Further, the TGI in the assay with MALME-3M melanoma, with MCF7 breast, in the assay on MDA-MB-435, in the assay on MDA-N, with NCI-H460 lung and with OVCAR-3 ovarian was > 100 µM each time. The TGI in the assay with OVCAR-4 ovarian was > 100 µM; in the assay with RXF 393 renal, > 100 µM; in the assay on SF-539 CNS, 88.7 µM; with SK-MEL-2 melanoma, > 100 µM; in the assay on SW-620 colon, > 100 µM; in the assay with T-47D breast, > 100 µM. The results for the TGI in the assay with TK-10 renal and in the assay on UO-31 renal were > 100 µM and 33.1 µM, respectively.
With `C=CC(C)CCC(C/C=C(\C)CCCC(C)C)C(=C)CCCC(C)C` (stereo not given), the TGI in the assay on 786-0 renal, in the assay with ACHN renal, in the assay with BT-549 breast, in the assay with CCRF-CEM leukemia, with HOP-92 NSCLC and with M14 melanoma was > 100 µM in each case. The TGI in the assay with MALME-3M melanoma, with MCF7 breast, in the assay on MDA-MB-435, in the assay with MDA-N, in the assay with NCI-H460 lung and with OVCAR-3 ovarian was > 100 µM in each case. The TGI with OVCAR-4 ovarian, in the assay on RXF 393 renal, in the assay with SF-539 CNS, with SK-MEL-2 melanoma, in the assay with SW-620 colon and with T-47D breast was > 100 µM each time. In addition, the TGI in the assay on TK-10 renal and with UO-31 renal was > 100 µM in each case.
In the case of `O=[N+]([O-])c1ccc(CSc2c3ccccc3nc3ccccc23)cc1`, the TGI in the assay with 786-0 renal is 4.22 µM; with ACHN renal it was 12.9 µM; in the assay with BT-549 breast, 33.4 µM; with CCRF-CEM leukemia it was > 22.9 µM; in the assay with HOP-92 NSCLC it was > 37.3 µM; in the assay with M14 melanoma, 16.6 µM. The TGI with MALME-3M melanoma is 6.04 µM; in the assay on MCF7 breast, > 100 µM; with MDA-MB-435, 14.3 µM; in the assay on MDA-N, 23.1 µM; in the assay with NCI-H460 lung, 46.9 µM; with OVCAR-3 ovarian, 14.4 µM. The TGI in the assay on OVCAR-4 ovarian was 31.1 µM; in the assay with RXF 393 renal it was 18.5 µM; in the assay with SF-539 CNS, 9.43 µM; in the assay on SK-MEL-2 melanoma, 32.3 µM; with SW-620 colon it was > 24.4 µM; with T-47D breast, 4.18 µM. Moreover, the TGI is 17.4 µM with TK-10 renal and 17 µM with UO-31 renal.
In the case of `c1cc2c(cc1NC1=NCCO1)CCCC2`, the TGI was 16.7 µM with 786-0 renal; 72.9 µM in the assay on ACHN renal; 75.7 µM in the assay on BT-549 breast; > 26.7 µM with CCRF-CEM leukemia; 19.3 µM with HOP-92 NSCLC; 12.2 µM with M14 melanoma. For the same compound, the TGI amounted to 21.9 µM in the assay with MALME-3M melanoma; 41.5 µM with MCF7 breast; 4.1 µM in the assay with MDA-MB-435; 3.18 µM in the assay on MDA-N; 15.7 µM in the assay on NCI-H460 lung; 16.8 µM in the assay with OVCAR-3 ovarian. Moreover, the TGI in the assay with OVCAR-4 ovarian is 71.2 µM; in the assay with RXF 393 renal it was 14.2 µM; in the assay with SF-539 CNS, 6.25 µM; with SK-MEL-2 melanoma it was 11.4 µM; in the assay with SW-620 colon it was 47.3 µM; in the assay on T-47D breast, > 88.7 µM. The TGI in the assay with TK-10 renal amounted to 52.5 µM; with UO-31 renal, 51.8 µM.
Regarding `O=C1C(=Cc2cccc(Cl)c2)N=C(c2ccccc2)N1n1c(-c2ccccc2)nc2ccccc2c1=O`, the TGI was > 100 µM in the assay on 786-0 renal; > 100 µM with ACHN renal; > 100 µM in the assay on BT-549 breast; > 100 µM with CCRF-CEM leukemia; 81.4 µM in the assay with HOP-92 NSCLC; 54.5 µM in the assay on M14 melanoma. The TGI with MALME-3M melanoma, in the assay with MCF7 breast, with MDA-MB-435, with MDA-N, in the assay on NCI-H460 lung and in the assay on OVCAR-3 ovarian was > 100 µM throughout. The TGI with OVCAR-4 ovarian, in the assay with RXF 393 renal, with SF-539 CNS, in the assay with SK-MEL-2 melanoma, in the assay with SW-620 colon and with T-47D breast was > 100 µM throughout. For the same compound, the TGI with TK-10 renal and in the assay with UO-31 renal was > 100 µM in each case.
